Tested on: HEK-CMV-Luc2-Hygro cells
Assay: High-throughput genome-wide siRNA screen and validation screen for luciferase expression
Type: cell-based, human
Details: for Viable cell density (%) / per cell luciferase yield (%): Table 4, negative control = 100%; for Viable cell density (%) / per cell luciferase yield (%) / per_cell / VIA: primary screen, 72 h; for per_cell / VIA: Table 3; for per_cell: per cell luciferase yield relative to negative control; for VIA: viable cell density as % of negative control; for Luciferase activity (%) / Per cell luciferase yield (%) / Viable cell number (%): Table 6, polyamine pathway gene siRNAs
How it was run: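 HEK cells with CMV-driven luciferase were reverse-transfected with 0.8 pmol siRNA per well (3 per gene) via RNAiMax and grown 72 h at 37 °C. Duplicate wells read for luciferase (ONE-Glo) and viability (CellTiter-Glo). Values given as % of plate negative-control median with MAD-based z-scores; hits with ≥2 siRNAs at z>3 retested using 3 new siRNAs.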

Row | Substance | Viable cell density (%) | per cell luciferase yield (%) | per_cell | VIA | other results
1 | 178 (AAAUGCAACCCAAAAAGUATT; chemistry not given here; listed as Homo sapiens) [compound 178] | 76.280 | 200.322 | – | – | –
2 | 182 (CAGUUACUUUCAAAACUCUTT; chemistry not given here; listed as Homo sapiens) [compound 182] | 91.714 | 202.960 | – | – | –
3 | 39 (CGCUUUAACUGGAAGCUCUTT; chemistry not given here; listed as Homo sapiens) [compound 39] | – | – | 147 | 103.7 | –
4 | 171 (CCCUGUUCAUUAUAAGUCUTT; chemistry not given here; listed as Homo sapiens) [compound 171] | 279.253 | 272.683 | – | – | –
5 | 225 (GCUUGCAGUUAAUAUCAUUTT; chemistry not given here; listed as Homo sapiens) [compound 225] | – | – | – | – | Luciferase activity (%): 28.4%; Per cell luciferase yield (%): 46.7%; Viable cell number (%): 60.8%
6 | 105 (GCGCAAGCUUAAGAACUUUTT; chemistry not given here; listed as Homo sapiens) [compound 105] | 94.579 | 170.349 | – | – | –
7 | 202 (GGAUGACGAGCUGAACUUUTT; chemistry not given here; listed as Homo sapiens) [compound 202] | 113.437 | 140.103 | – | – | –
8 | 114 (GUCCUAUCACCGUAUCUUATT; chemistry not given here; listed as Homo sapiens) [compound 114] | 55.962 | 266.627 | – | – | –
9 | 57 (GAACGAGUACAGCAAUAUATT; chemistry not given here; listed as Homo sapiens) [compound 57] | – | – | 140.9 | 108.2 | –
10 | 138 (CCCUCCUACUAUUACCCGUTT; chemistry not given here; listed as Homo sapiens) [compound 138] | 96.869 | 162.999 | – | – | –
11 | 199 (CUAACUACCCAGACCCUUATT; chemistry not given here; listed as Homo sapiens) [compound 199] | 88.359 | 164.639 | – | – | –
12 | 212 (GAGCAGAGAUCAUAACCAATT; chemistry not given here; listed as Homo sapiens) [compound 212] | 108.211 | 141.104 | – | – | –
13 | 218 (GGACCUCCCUGUGAAUGAUTT; chemistry not given here; listed as Homo sapiens) [compound 218] | – | – | – | – | Luciferase activity (%): 95.4%; Per cell luciferase yield (%): 110.9%; Viable cell number (%): 86.0%
14 | 149 (CGACCAUCAUGGAAAACAUTT; chemistry not given here; listed as Homo sapiens) [compound 149] | 57.472 | 294.800 | – | – | –
15 | 211 (GGAUUACAGAAACUCCUAUTT; chemistry not given here; listed as Homo sapiens) [compound 211] | 82.634 | 188.258 | – | – | –
16 | 172 (GGAUAUUGGAGGCUAGUCATT; chemistry not given here; listed as Homo sapiens) [compound 172] | 289.677 | 157.868 | – | – | –
17 | 50 (GGAGGAAUCUCGAAUGCGATT; chemistry not given here; listed as Homo sapiens) [compound 50] | – | – | 173.3 | 96 | –
18 | 83 (GCGGAAAAGGUAUCCCUCATT; chemistry not given here; listed as Homo sapiens) [compound 83] | – | – | 184.6 | 80.17 | –
19 | 140 (GUCCGAGUGUGGUUCUGUATT; chemistry not given here; listed as Homo sapiens) [compound 140] | 85.820 | 180.401 | – | – | –
20 | 228 (GCCCUCUGUUGGAUAUCUATT; chemistry not given here; listed as Homo sapiens) [compound 228] | – | – | – | – | Luciferase activity (%): 45.6%; Per cell luciferase yield (%): 63.2%; Viable cell number (%): 72.1%
21 | 192 (GCAUCUGUCCGAUCGCUCUTT; chemistry not given here; listed as Homo sapiens) [compound 192] | 105.514 | 143.889 | – | – | –
22 | 98 (CAACGGGACUAUUAUGAUATT; chemistry not given here; listed as Homo sapiens) [compound 98] | 97.392 | 163.496 | – | – | –
23 | 195 (UGAAGAUAAUCGAGAAAUATT; chemistry not given here; listed as Homo sapiens) [compound 195] | 67.947 | 258.104 | – | – | –

Row | Substance | Viable cell density (%) | per cell luciferase yield (%) | per_cell | VIA | other results
24 | 169 (GCGGAAAAGGUAUCCCUCATT; chemistry not given here; listed as Homo sapiens) [compound 169] | 80.173 | 184.608 | – | – | –
25 | 40 (CGAUGUUCGUGGACAUUCUTT; chemistry not given here; listed as Homo sapiens) [compound 40] | – | – | 234.6 | 80.01 | –
26 | 38 (GCAGUGGACAUAGAAGAGATT; chemistry not given here; listed as Homo sapiens) [compound 38] | – | – | 140.7 | 110.8 | –
27 | 49 (CGAAACUUGUCAACGGGAATT; chemistry not given here; listed as Homo sapiens) [compound 49] | – | – | 179.2 | 104.6 | –
28 | 63 (CCUGGACAGUUUGAAGCAATT; chemistry not given here; listed as Homo sapiens) [compound 63] | – | – | 174.9 | 88.01 | –
29 | 163 (CCAGCGAUACAACUCCUAUTT; chemistry not given here; listed as Homo sapiens) [compound 163] | 83.636 | 176.821 | – | – | –
30 | 109 (GCAUCGAGGAGACUAACAATT; chemistry not given here; listed as Homo sapiens) [compound 109] | 51.696 | 275.068 | – | – | –
31 | 123 (GGUGUAAUAAUGUCCUUUATT; chemistry not given here; listed as Homo sapiens) [compound 123] | 79.386 | 188.094 | – | – | –
32 | 188 (GGAAGAACGUCUUGCACAATT; chemistry not given here; listed as Homo sapiens) [compound 188] | 85.471 | 183.071 | – | – | –
33 | 174 (GCAAUGCUUGCAAAACUCATT; chemistry not given here; listed as Homo sapiens) [compound 174] | 90.976 | 189.252 | – | – | –
34 | 58 (ACAGGUCUUUAUCAAAGCATT; chemistry not given here; listed as Homo sapiens) [compound 58] | – | – | 3.426 | 100.2 | –
35 | 215 (GCUAACUUAUUCUACUCCGTT; chemistry not given here; listed as Homo sapiens) [compound 215] | – | – | – | – | Luciferase activity (%): 171.1%; Per cell luciferase yield (%): 154.7%; Viable cell number (%): 110.6%
36 | 48 (GCAAUGCUUGCAAAACUCATT; chemistry not given here; listed as Homo sapiens) [compound 48] | – | – | 189.3 | 90.98 | –
37 | 87 (GGUGUAAUAAUGUCCUUUATT; chemistry not given here; listed as Homo sapiens) [compound 87] | – | – | 188.1 | 79.39 | –
38 | 67 (GGAUGACGAGCUGAACUUUTT; chemistry not given here; listed as Homo sapiens) [compound 67] | – | – | 140.1 | 113.4 | –
39 | 170 (CCAACAAGGAAGACGAAAATT; chemistry not given here; listed as Homo sapiens) [compound 170] | 267.320 | 284.062 | – | – | –
40 | 165 (AGGUCAAUGUGACUUUCCATT; chemistry not given here; listed as Homo sapiens) [compound 165] | 105.029 | 161.785 | – | – | –
41 | 81 (GUUUCAUCUGGGUUCGCUATT; chemistry not given here; listed as Homo sapiens) [compound 81] | – | – | 233.6 | 62.66 | –
42 | 74 (CUUCGACAGUACUUCCGGATT; chemistry not given here; listed as Homo sapiens) [compound 74] | – | – | 161.6 | 104 | –
43 | 141 (AGAGGACCCAGAUUGUCUATT; chemistry not given here; listed as Homo sapiens) [compound 141] | 97.298 | 183.386 | – | – | –
44 | 136 (AGGUUACAGAGGACUCAGATT; chemistry not given here; listed as Homo sapiens) [compound 136] | 49.189 | 299.886 | – | – | –
45 | 156 (GAUUAUCCUUGUACUUUGATT; chemistry not given here; listed as Homo sapiens) [compound 156] | 101.904 | 141.842 | – | – | Luciferase activity (%): 144.5%; Per cell luciferase yield (%): 141.8%; Viable cell number (%): 101.9%

Source: patent publication US20160319277A1, “METHODS OF IMPROVED PROTEIN PRODUCTION USING MIRNAs AND SIRNAs” (THE JOHNS HOPKINS UNIVERSITY, priority 2015, published 2016)
